Assay: N-nitrosomethylphenidate content of methylphenidate compositions by UHPLC-MS/MS
Type: physicochemical
Conditions: verbal assessment of Table 2; antioxidant/stabilizer in methylphenidate composition
Description: To determine the effect of various antioxidants or stabilizers on the prevention of nitrosamine formation in compositions containing methylphenidate, different pharmaceutical compositions were prepared as described in Example 1 above, except that antioxidants/stabilizers other than ascorbyl palmitate were used. However, for better comparability, the molar ratio of methylphenidate: antioxidant/stabilizer was kept constant at 1:3 in all compositions (except for the composition with no antioxidant/stabilizer). Accordingly, the compositions of Example 1 and Comparative Examples 2 to 7 differ only in the type of antioxidant/stabilizer and are otherwise composed exactly as shown in Table 1 above for Example 1. The content of N-nitrosomethylphenidate in the compositions was determined by UHPLC-MS/MS. Accordingly, the term “nitrosamine” in the present context refers to “N-nitrosomethylphenidate”. For sample preparation, the compositions were ground and the resulting powders were extracted with methanol. The following measurement conditions were used for the N-nitrosomethylphenidate determination: • LC column: Waters BEH Shield RP18 (100x2.1 mm, 1.7 um) • Flow rate: 0.4 mL/min • Column temperature: 50° C. . . . • Mobile phase: Phase A: Water with 0.1% by volume formic acid • Phase B: Acetonitrile • Gradient conditions: […]

With `CCCCCCCCCCCCCCCC(=O)OC[C@H](O)[C@H]1OC(=O)C(O)=C1O` [ascorbyl palmitate] the “effectiveness in reducing nitrosamine formation in compositions with methylphenidate” value was “by far the most effective”.

Reference: patent US20250352532A1, “REDUCED N[…] IN PHARMACEUTICAL COMPOSITIONS COMPRISING METHYLPHENIDATE” (MEDICE Arzneimittel Pütter GmbH & Co. KG, priority 2024, published 2025)
